From US20240382497A1, “PROPHYLACTIC OR THERAPEUTIC AGENT FOR HYPOXIC INJURY, ISCHAEMIA-REPERFUSION INJURY AND INFLAMMATION, CELL PROTECTION AGENT FOR TRANSPLANTATION, AND BIO-PRESERVATION AGENT” (priority 2018, published 2024)

Assays:
[1] = system: male C57/BL6N mouse; test: Survival time in 4% oxygen after Trpa1 agonist i.p.; type: in vivo; conditions: wild-type mouse; i.p. Δ9-THC 10 mg/kg, AITC 40 mg/kg, APAP 300 mg/kg; 30 min before 4% oxygen; versus saline
Protocol: (§1) Saline or known Trpa1 agonists Δ9-tetrahydrocannabinol (Δ^9-THC; 10 mg/kg), allyl isothiocyanate (AITC; 40 mg/kg), or acetaminophen (APAP; 300 mg/kg) was intraperitoneally administered to male C57/BL6N mouse (about 3-month-old) and, 30 min later, the mouse was placed in a tight box with adjusted oxygen concentration of 4%, and the survival time of the mouse was measured for 30 min at maximum. As to APAP, the survival time in 4% oxygen environment was also measured using male Trpa1 knockout and littermate hetero mice (about 3-to 6-month-old).

[2] = system: TNF-α; test: Blood TNF-α after LPS and 4E2MT, Trpa1 knockout and control mice; type: in vivo, mouse; conditions: 1 hr after simultaneous i.p. administration with LPS
Protocol: Lipopolysaccharide (LPS) (0.6 mg/kg) was intraperitoneally administered to male Balb/c mice (about 2-3 months old) to generate a sepsis model. Immediately after the LPS administration, 200 μl (about 80 mg/kg) of a solution prepared by diluting various heterocyclic compounds and isothiocyanate compounds 100 times with saline was intraperitoneally administered. Blood samples were collected 60 min after LPS and compound administration, EDTA plasma was prepared, and the blood level of inflammatory cytokine TNF-a was measured by the ELISA method.
Changes in the body surface temperature, survival time under a hypoxic environment, and TNF-α production in blood by LPS administration induced by intraperitoneally administration of thiazoline-related compound (4-ethyl-2-methyl-2-thiazoline; 4E2MT) measured by a method similar to those in Example 3, Example 10, or Example 18.

[3] = Yu et al., Cell Physiol Biochem 36: 1539-1551, 2015; cited from earlier work
[4] = system: Trpa1 knockout and littermate hetero mice; test: Survival time in 4% oxygen after APAP i.p., Trpa1 knockout and hetero mice; type: in vivo, mouse; conditions: 300 mg/kg i.p., versus saline
Protocol: as §1

[5] = system: C57/BL6N male mice; test: Survival time in 4% oxygen after intraperitoneal NaHS or 2-methylthiophene; type: in vivo, mouse; conditions: 200 μl i.p. of 1% solution; all individuals; observation time of 30 min
Protocol: Thus, the survival time was measured at the remaining three concentrations. As a control, the survival time of the mice intraperitoneally injected with saline or 2-methylthiophene (1% solution) in 4% oxygen was measured.

[6] = system: mice; test: Oxygen consumption after intraperitoneal injection; type: in vivo, mouse; conditions: versus saline
Protocol: An influence of a thiazoline-related compound on the oxygen consumption was analyzed. The oxygen consumption was analyzed using an energy metabolism measurement device for small animals (ARCO-2000; ARCO SYSTEM). About 3-month-old C57/BL6N male mice were each placed in a measuring chamber and, after acclimation for about 2 hr, a thiazoline-related compound (2MT) was presented. The odors were presented by placing filter papers scented with 100 μl (104 mmol) of odor molecules in the measuring chamber. As a control, an experiment in which a filter paper dropped with saline was presented to the mice was also performed. The oxygen consumption was measured every one min. Mean oxygen consumption was calculated as the mean of 10 min before presenting odor and 20 min after presenting odor.
Changes in the oxygen consumption induced by intraperitoneal injection of heterocyclic compounds (2MT and Thiomorpholine (TMO) were measured by a method similar to that in Example 8.

[7] = system: C57/BL6N male mice; test: Survival time in 4% oxygen after intraperitoneal administration; type: in vivo, mouse; conditions: Example 12, about 80 mg/kg i.p., 30 min before 4% oxygen, Kaplan-Meier, versus saline
Protocol: Influence of intraperitoneal administration of various kinds of heterocyclic compounds on the survival time of mouse under hypoxic environment was analyzed. The odor molecule was administered by a method of intraperitoneally injecting 200 μl (about 80 mg/kg, i.p.) of a solution diluted 100 times with saline and, 30 min later, the mice were placed in a tight box with adjusted oxygen concentration of 4%, and the survival time of the mouse was measured for 30 min at maximum. As a control, the survival time of the mice intraperitoneally injected with saline (control) was measured.
By a method similar to that in Example 10, influence of intraperitoneal administration of various isothiocyanate compounds (about 80 mg/kg, i.p.) on the survival time of mouse under hypoxic environment was analyzed.
About 3-month-old C57/BL6N male mice were intraperitoneally injected with 200 μl (about 80 mg/kg, i.p.) of a thiomorpholine solution diluted 100 times with saline and, 30 min later, the mice were placed in a tight box with adjusted oxygen concentration of 4%, and the survival time of the mouse was measured. As a control, the survival time of the mice intraperitoneally injected with saline was measured.

[8] = system: wild-type and Trpa1 knockout mice; test: Survival time in 4% oxygen, thiomorpholine i.p., wild-type and Trpa1 knockout mice; type: in vivo, mouse; conditions: about 80 mg/kg i.p.
Protocol: A heterocyclic compound (thiomorpholine) (200 μl, about 80 mg/kg) diluted 100 times with saline was intraperitoneally injected to male wild-type and Trpa1 knockout mice (about 3 to 6-month-old) and, 30 min later, the mice were placed in a tight box in which the oxygen concentration was adjusted to 4%, and the survival time of the mice was measured.

C=CCN=C=S [AITC, allyl isothiocyanate]
survival time in 4% oxygen [1]: extending the survival time

CCC1CSC(C)=N1 (stereo not drawn) [4E2MT, 4-ethyl-2-methyl-2-thiazoline]
amount of TNF-α in blood (decreasing effect) [2]: this effect was suppressed

[Na+].[SH-] [NaHS]
protective effects in ischemia-reperfusion injury [3]: protective effects in ischemia-reperfusion injury

CC(=O)Nc1ccc(O)cc1 [APAP, acetaminophen]
survival time in 4% oxygen ([4]; Trpa1 knockout mice (Trpa1−/−)): such effect was not observed
survival time in 4% oxygen ([4]; control mice (Trpa1+/−)): extending the survival time
survival time in 4% oxygen [1]: extending the survival time

Cc1cccs1 [2-methylthiophene]
survival time in 4% oxygen [5]: ≥ 30 min

C1CSCCN1 [thiomorpholine]
oxygen consumption [6]: suppress the oxygen consumption
survival time in 4% oxygen (hypoxia resistance) [7]: produces hypoxia resistance
survival time in 4% oxygen ([8]; Trpa1 knockout mice (Trpa1−/−), compared with wild-type mouse): survival time significantly decreased
survival time in 4% oxygen ([8]; wild-type mice (Trpa1+/+)): significantly prolonging the survival time

CCCCCc1cc(O)c2c(c1)OC(C)(C)[C@@H]1CCC(C)=C[C@@H]21 [49-THC, Δ9-tetrahydrocannabinol]
survival time in 4% oxygen [1]: extending the survival time
